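In this assay, cells in 96-well plates receive the compound at five concentrations for 48 hours. Endpoints are linearly interpolated between the surrounding concentrations. GI50 = concentration required for 50% inhibition of growth.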 The source made the active and inactive calls. No stated cut-off is given here; in the data, active = GI50 up to about 1.1 µM and inactive = higher.
Tests used:
Test in all cases: growth of human tumour cells (NCI), 48 h
NCI-H23 = tested on: NCI-H23
SF-539 = tested on: SF-539
MDA-N = tested on: MDA-N
DU-145 = tested on: DU-145
SW-620 = tested on: SW-620
T47D = tested on: T47D
BT-549 = tested on: BT-549
TK-10 = tested on: TK-10
UO-31 = tested on: UO-31
HCT-116 = tested on: HCT-116
MCF7 = tested on: MCF7
SK-MEL-28 = tested on: SK-MEL-28
SF-268 = tested on: SF-268
HCC 2998 = tested on: HCC 2998
KM12 = tested on: KM12
OVCAR-4 = tested on: OVCAR-4
RXF 393 = tested on: RXF 393
IGROV-1 = tested on: IGROV-1
HOP-62 = tested on: HOP-62
EKVX = tested on: EKVX

Row | SMILES | GI50 (NCI-H23) | GI50 (SF-539) | GI50 (MDA-N) | GI50 (DU-145) | GI50 (SW-620) | GI50 (T47D) | GI50 (BT-549) | GI50 (TK-10) | GI50 (UO-31) | GI50 (HCT-116) | GI50 (MCF7) | GI50 (SK-MEL-28) | GI50 (SF-268) | GI50 (HCC 2998) | GI50 (KM12) | GI50 (OVCAR-4) | GI50 (RXF 393) | GI50 (IGROV-1) | GI50 (HOP-62) | GI50 (EKVX)
1 | CC(C)(C)C1=CC(C)(n2[nH]c(=O)n(-c3ccccc3)c2=O)C=C(C(C)(C)C)C1=O | > 100 µM (inactive) | > 100 µM (inactive) | > 100 µM (inactive) | > 100 µM (inactive) | > 100 µM (inactive) | 59.6 µM (inactive) | > 100 µM (inactive) | > 100 µM (inactive) | 44.9 µM (inactive) | > 100 µM (inactive) | > 100 µM (inactive) | > 100 µM (inactive) | > 100 µM (inactive) | > 100 µM (inactive) | > 100 µM (inactive) | > 100 µM (inactive) | – | – | – | –
2 | CN1CCc2c(sc3nc(S)nc(S)c23)C1 | > 100 µM (inactive) | > 100 µM (inactive) | > 100 µM (inactive) | > 100 µM (inactive) | > 100 µM (inactive) | > 100 µM (inactive) | > 100 µM (inactive) | > 100 µM (inactive) | – | > 100 µM (inactive) | > 100 µM (inactive) | > 100 µM (inactive) | > 100 µM (inactive) | – | > 100 µM (inactive) | > 100 µM (inactive) | > 100 µM (inactive) | > 100 µM (inactive) | > 100 µM (inactive) | > 100 µM (inactive)
3 | C/C(=N\NC(=N)N)C(CN(C)C)C(c1ccccc1)c1c(O)c2ccccc2oc1=O (stereo not drawn) | > 100 µM (inactive) | > 100 µM (inactive) | > 100 µM (inactive) | > 100 µM (inactive) | > 100 µM (inactive) | 4.62 µM (inactive) | 72.9 µM (inactive) | > 100 µM (inactive) | > 100 µM (inactive) | > 100 µM (inactive) | > 100 µM (inactive) | > 100 µM (inactive) | > 100 µM (inactive) | > 100 µM (inactive) | > 100 µM (inactive) | > 100 µM (inactive) | – | > 100 µM (inactive) | > 26.6 µM (inactive) | > 100 µM (inactive)
4 | COc1ccc(OCc2ccc3nc(-c4ccccc4)c(Cl)nc3c2)cc1 | 19 µM (inactive) | 12.9 µM (inactive) | 52.7 µM (inactive) | > 100 µM (inactive) | 43.2 µM (inactive) | 45 µM (inactive) | 0.018 µM (active) | 17.7 µM (inactive) | 62.8 µM (inactive) | 19.2 µM (inactive) | 37.6 µM (inactive) | 47.3 µM (inactive) | 25.2 µM (inactive) | 27.7 µM (inactive) | > 100 µM (inactive) | 19.4 µM (inactive) | – | 38 µM (inactive) | 14.2 µM (inactive) | 50.5 µM (inactive)
5 | CN1CCc2c(sc3ncn(N)c(=N)c23)C1 | > 100 µM (inactive) | > 100 µM (inactive) | > 100 µM (inactive) | > 100 µM (inactive) | > 100 µM (inactive) | > 100 µM (inactive) | > 100 µM (inactive) | > 100 µM (inactive) | – | > 100 µM (inactive) | > 100 µM (inactive) | > 100 µM (inactive) | > 100 µM (inactive) | – | > 100 µM (inactive) | > 100 µM (inactive) | > 100 µM (inactive) | > 100 µM (inactive) | > 100 µM (inactive) | > 100 µM (inactive)
6 | CCCCCCC1CC(=O)C1(Cl)Cl (stereo not drawn) | 25.2 µM (inactive) | 31.3 µM (inactive) | 25.9 µM (inactive) | 26.9 µM (inactive) | 19.6 µM (inactive) | 27.5 µM (inactive) | 21.4 µM (inactive) | > 100 µM (inactive) | 19.4 µM (inactive) | 16.7 µM (inactive) | 26.4 µM (inactive) | > 10 µM (inactive) | 20.7 µM (inactive) | 26.3 µM (inactive) | 22.4 µM (inactive) | 29.1 µM (inactive) | – | 25.1 µM (inactive) | 44.7 µM (inactive) | 59.2 µM (inactive)
7 | O=C(NC(=S)Nc1ccc2c(c1)Sc1ccccc1O2)c1ccc([N+](=O)[O-])cc1 | > 100 µM (inactive) | > 100 µM (inactive) | > 100 µM (inactive) | > 100 µM (inactive) | > 100 µM (inactive) | > 100 µM (inactive) | > 100 µM (inactive) | > 100 µM (inactive) | > 100 µM (inactive) | > 100 µM (inactive) | > 100 µM (inactive) | > 100 µM (inactive) | > 100 µM (inactive) | – | > 100 µM (inactive) | > 100 µM (inactive) | > 100 µM (inactive) | > 100 µM (inactive) | > 100 µM (inactive) | > 100 µM (inactive)
8 | CC(=O)OCc1cc(CCC(=O)NCCNc2c3ccccc3nc3ccccc23)cc(COC(C)=O)c1O[Si](C)(C)C(C)(C)C | 14.5 µM (inactive) | 2.59 µM (inactive) | 5.85 µM (inactive) | 12.1 µM (inactive) | 9.44 µM (inactive) | 1.97 µM (inactive) | 13.7 µM (inactive) | 7.46 µM (inactive) | 12.9 µM (inactive) | 4.61 µM (inactive) | 2.2 µM (inactive) | 4.73 µM (inactive) | – | – | 2.95 µM (inactive) | 6.19 µM (inactive) | 3.48 µM (inactive) | 10.4 µM (inactive) | 13.6 µM (inactive) | 13.4 µM (inactive)
9 | COc1cc(Nc2cnc3cc(F)c(F)cc3n2)cc(OC)c1 | 20.8 µM (inactive) | 71 µM (inactive) | > 100 µM (inactive) | > 100 µM (inactive) | > 100 µM (inactive) | > 100 µM (inactive) | 33.9 µM (inactive) | > 100 µM (inactive) | > 100 µM (inactive) | 58.1 µM (inactive) | > 100 µM (inactive) | > 100 µM (inactive) | 43.7 µM (inactive) | – | > 100 µM (inactive) | > 100 µM (inactive) | 12.2 µM (inactive) | > 100 µM (inactive) | 25.9 µM (inactive) | > 100 µM (inactive)
10 | Cc1c(S(=O)(=O)N/C(N)=N/c2ccc(Cl)cc2)sc2ccc(Cl)cc12 | 18 µM (inactive) | 23.9 µM (inactive) | 20.1 µM (inactive) | 18.5 µM (inactive) | 22 µM (inactive) | 29.7 µM (inactive) | 24.4 µM (inactive) | 19.9 µM (inactive) | 15.3 µM (inactive) | 15.9 µM (inactive) | 17.8 µM (inactive) | 21.4 µM (inactive) | 17 µM (inactive) | – | 28.1 µM (inactive) | 22.2 µM (inactive) | 48.6 µM (inactive) | 16.1 µM (inactive) | 18.5 µM (inactive) | 15.9 µM (inactive)
11 | NC(=S)N/N=C/c1c[nH]c2ccccc12 | > 100 µM (inactive) | > 100 µM (inactive) | > 100 µM (inactive) | > 100 µM (inactive) | > 100 µM (inactive) | 99.3 µM (inactive) | > 100 µM (inactive) | > 100 µM (inactive) | > 100 µM (inactive) | > 100 µM (inactive) | > 100 µM (inactive) | > 100 µM (inactive) | > 100 µM (inactive) | – | > 100 µM (inactive) | > 100 µM (inactive) | > 100 µM (inactive) | > 100 µM (inactive) | > 100 µM (inactive) | 2.86 µM (inactive)

From ChEMBL document CHEMBL1201862, “PubChem BioAssay data set” (2004)
